# Measured values reported in patent publication US20260223850A1, “SUBSTITUTED PYRROLIDONE COMPOUND, PREPARATION METHOD THEREFOR, COMPOSITION AND APPLICATION THEREOF” (QINGDAO KINGAGROOT CHEMICAL COMPOUND CO., LTD., priority 2023, published 2026).
# Key:
# Assay type in all cases: in vivo
# [1] = system: Echinochloa phyllopogon; assay: Seedling stage sealing experiment for water-seeding; conditions: 120 g a.i./ha, 15 days, fresh weight control rate
# How it was run: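 Seeds broadcast on soil in nutrition bowls, covered, kept moist in a water-filled box; compound in acetone diluted with water and spray-tower applied at 120, 60, 30 and 15 g a.i./ha, triplicate. Scored after 15 days in greenhouse on a 0–9 scale of fresh-weight growth control, averaged.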
# [2] = system: Echinochloa crusgalli; assay: as above; conditions: 120 g a.i./ha, 15 days, fresh weight control rate
# [3] = system: Huaidao (rice cultivar); assay: Seedling stage sealing experiment for water-seeding (crop safety); conditions: 120 g a.i./ha, 15 days, fresh weight control rate; for Huaidao (rice cultivar) plant damage level: seedling stage sealing; for Huaidao (rice cultivar) plant damage level (growth control rate): spray, seedling stage sealing for water-seeding
# Source text: The activity level criteria for plant damage (i.e., growth control rate) are as follows: • Level 9: completely dead; • Level 8: growth control rate greater than or equal to 90% and less than 100%; • Level 7: growth control rate greater than or equal to 80% and less than 90%; • Level 6: growth control rate greater than or equal to 70% and less than 80%; • Level 5: growth control rate greater than or equal to 50% and less than 70%; • Level 4: growth control rate greater than or equal to 30% and less than 50%; • Level 3: growth control rate greater than or equal to 20% and less than 30%; • Level 2: growth control rate greater than or equal to 10% and less than 20%; • Level 1: growth control rate less than 10%; • Level 0: no effect.
# The above growth control rates are fresh weight control rates.
# Echinochloa phyllopogon, Digitaria sanguinalis, Huaidao (rice cultivar), etc. were broadcasted on the surface of nutrition bowls filled with soil and fully covered by soil. The foregoing well-prepared nutrition bowls were then placed in a cultivation box with water filled to a suitable height to keep the soil in the nutrition bowls moist. A test compound of the present invention was individually dissolved with acetone, then diluted into solution of a certain concentration using a certain amount of water, and sprayed using a spray tower. The plants were placed on a greenhouse seedbed and cultured for 15 days, and the experimental results were then collected. The compound was applied at 120, 60, 30 and 15 g a.i./ha in triplicate, and the results were averaged.
# [4] = spray, seedling stage sealing for water-seeding
Compound,Echinochloa phyllopogon activity level (growth control rate) ([1]; seedling stage sealing),Echinochloa crusgalli activity level (growth control rate) ([2]; seedling stage sealing),Huaidao (rice cultivar) plant damage level [3],"Echinochloa phyllopogon activity level (growth control rate) [1, 4]","Echinochloa crusgalli activity level (growth control rate) [2, 4]",Huaidao (rice cultivar) plant damage level (growth control rate) [3]
COCn1ncc(NC(=O)[C@H]2C(=O)N(C)C[C@@H]2c2cc(C)cc(C)c2)c1Cl [422′],9,9,1 (Level 1: growth control rate less than 10%),–,–,–
COCCn1ncc(NC(=O)[C@H]2C(=O)N(C)C[C@@H]2c2cc(C)cc(C)c2)c1Cl [423′],6 (Level 6: growth control rate greater than or equal to 70% and less than 80%),9,0,–,–,–
Cc1cc(C)cc([C@H]2CN(C)C(=O)[C@@H]2C(=O)Nc2cnn(C)c2I)c1 [426′],9,9,0,–,–,–
Cc1cc(C)cc([C@H]2CN(C)C(=O)[C@@H]2C(=O)Nc2cnn(C)c2C(F)(F)F)c1 [427′],9,9,2 (Level 2: growth control rate greater than or equal to 10% and less than 20%),–,–,–
CCn1ncc(NC(=O)[C@H]2C(=O)N(C)C[C@@H]2c2cc(C)cc(C)c2)c1C1CC1 [432′],9,9,0,–,–,–
COC(=O)c1c(NC(=O)[C@H]2C(=O)N(C)C[C@@H]2c2cc(C)cc(C)c2)cnn1C [433′],6 (Level 6: growth control rate greater than or equal to 70% and less than 80%),9,0,–,–,–
CCc1cc(C)cc([C@H]2CN(C)C(=O)[C@@H]2C(=O)Nc2cnn(C(F)F)c2Cl)c1 [438′],9,9,2 (Level 2: growth control rate greater than or equal to 10% and less than 20%),–,–,–
CCc1cc(CC)cc([C@H]2CN(C)C(=O)[C@@H]2C(=O)Nc2cnn(C)c2Cl)c1 [439′],9,9,2 (Level 2: growth control rate greater than or equal to 10% and less than 20%),–,–,–
CN1C[C@H](c2cc(Br)cc(Br)c2)[C@@H](C(=O)Nc2cnn(C)c2Cl)C1=O [440′],9,9,0,–,–,–
CN1C[C@H](c2cc(Cl)cc(Cl)c2)[C@@H](C(=O)Nc2cnn(C)c2Cl)C1=O [441′],9,9,0,–,–,–
CN1C[C@H](c2cc(Cl)cc(Cl)c2)[C@@H](C(=O)Nc2cnn(C(F)F)c2Cl)C1=O [442′],8 (Level 8: growth control rate greater than or equal to 90% and less than 100%),8 (Level 8: growth control rate greater than or equal to 90% and less than 100%),0,–,–,–
CN1C[C@H](c2cc(Cl)cc(Cl)c2)[C@@H](C(=O)Nc2cnn(C)c2C2CC2)C1=O [443′],–,–,–,8 (Level 8: growth control rate greater than or equal to 90% and less than 100%),9,0
COc1cc([C@H]2CN(C)C(=O)[C@@H]2C(=O)Nc2cnn(C(F)F)c2Cl)cc(C(F)(F)F)c1 [445′],–,–,–,9,9,0
COc1c(C(F)(F)F)ccc([C@H]2CN(C)C(=O)[C@@H]2C(=O)Nc2cnn(C)c2Cl)c1F [446′],–,–,–,9,9,0
Cc1cc([C@H]2CN(C)C(=O)[C@@H]2C(=O)Nc2cnn(C)c2Cl)cc(C)c1C [447′],–,–,–,9,9,0
Cc1cc([C@H]2CN(C)C(=O)[C@@H]2C(=O)Nc2cnn(C)c2C2CC2)cc(C)c1C [448′],–,–,–,9,9,0

Compound,Echinochloa phyllopogon activity level (growth control rate) ([1]; seedling stage sealing),Echinochloa crusgalli activity level (growth control rate) ([2]; seedling stage sealing),Huaidao (rice cultivar) plant damage level [3],"Echinochloa phyllopogon activity level (growth control rate) [1, 4]","Echinochloa crusgalli activity level (growth control rate) [2, 4]",Huaidao (rice cultivar) plant damage level (growth control rate) [3]
CN1C[C@H](c2cccc3c2OC(F)(F)O3)[C@@H](C(=O)Nc2cnn(C)c2Cl)C1=O [450′],–,–,–,9,9,0
CCCn1ncc(NC(=O)[C@H]2C(=O)N(C)C[C@@H]2c2cccc(C)c2)c1Cl [462′],–,–,–,9,9,0
Cc1cccc([C@H]2CN(C)C(=O)[C@@H]2C(=O)Nc2cnn(C(F)F)c2C)c1 [465′],–,–,–,9,9,2 (Level 2: growth control rate greater than or equal to 10% and less than 20%)
C=Cc1c(NC(=O)[C@H]2C(=O)N(C)C[C@@H]2c2cccc(C)c2)cnn1C(F)F [468′],–,–,–,9,9,0
CN1C[C@H](c2cccc(C(F)(F)F)c2)[C@@H](C(=O)Nc2cnn(C)c2C(F)F)C1=O [478′],–,–,–,9,9,0
CN1C[C@H](c2cccc(C(F)(F)F)c2)[C@@H](C(=O)Nc2cnn(C)c2S(C)(=O)=O)C1=O [480′],–,–,–,9,9,1 (Level 1: growth control rate less than 10%)
COc1cccc([C@H]2CN(C)C(=O)[C@@H]2C(=O)Nc2cnn(C)c2C(F)(F)F)c1 [485′],–,–,–,9,9,0
Cc1ccc([C@H]2CN(C)C(=O)[C@@H]2C(=O)Nc2cnn(C(F)F)c2Cl)cc1 [486′],–,–,–,9,9,2 (Level 2: growth control rate greater than or equal to 10% and less than 20%)
Cc1ccc([C@H]2CN(C)C(=O)[C@@H]2C(=O)Nc2cnn(C(F)F)c2Cl)cc1C [487′],–,–,–,9,9,2 (Level 2: growth control rate greater than or equal to 10% and less than 20%)
CN1C[C@H](c2cc(F)cc(F)c2)[C@@H](C(=O)Nc2cnn(C)c2C(F)(F)F)C1=O [489′],–,–,–,9,9,0
Cc1cc(C)cc([C@H]2CN(C)C(=O)[C@@H]2C(=O)Nc2cnn(C(F)F)c2C)c1 [494′],–,–,–,9,9,2 (Level 2: growth control rate greater than or equal to 10% and less than 20%)
Cc1cc(C)cc([C@H]2CN(C)C(=O)[C@@H]2C(=O)Nc2cnn(C)c2CF)c1 [495′],–,–,–,7 (Level 7: growth control rate greater than or equal to 80% and less than 90%),9,0
C=Cc1c(NC(=O)[C@H]2C(=O)N(C)C[C@@H]2c2cc(C)cc(C)c2)cnn1C(F)F [496′],–,–,–,9,9,0
Cc1cc(C)cc([C@H]2CN(C)C(=O)[C@@H]2C(=O)Nc2cnn(C)c2S(C)(=O)=O)c1 [498′],–,–,–,9,9,0
CO/N=C/c1c(NC(=O)[C@H]2C(=O)N(C)C[C@@H]2c2cc(C)cc(C)c2)cnn1C [501′],–,–,–,7 (Level 7: growth control rate greater than or equal to 80% and less than 90%),9,0
Cc1cc(C)cc([C@H]2CN(C)C(=O)[C@@H]2C(=O)Nc2cnn(C)c2CO)c1 [502′],–,–,–,7 (Level 7: growth control rate greater than or equal to 80% and less than 90%),9,0
